According to PubChem BioAssay AID248 (DTP/NCI, 2004):
Several values for one entry are separate records, joined by “and”; a condition that tells them apart may be missing. Equal values may be shown once. Inconclusive results and toxic doses are left out.

System: L1210 leukemia ip in BDF1 mice, survival T/C
Experiment: NCI In Vivo Anticancer Drug Screen. Data for tumor model L1210 Leukemia (intraperitoneal) in B6D2F1 (BDF1) mice
Conditions: endpoint: mean survival time, higher = longer survival
Summary of the method: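 Transplanted-tumor mice were given test agent; controls received vehicle only. Survival readings from the two groups were divided (treated over control).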

[1] = dose: 50.0 mg/kg/injection, schedule: Q01DX001 (ip), vehicle: carboxymethylcellulose (CMC)
[2] = dose: 100.0 mg/kg/injection, schedule: Q01DX001 (ip), vehicle: carboxymethylcellulose (CMC)
[3] = dose: 200.0 mg/kg/injection, schedule: Q01DX001 (ip), vehicle: carboxymethylcellulose (CMC)
[4] = dose: 400.0 mg/kg/injection, schedule: Q01DX001 (ip), vehicle: carboxymethylcellulose (CMC)
[5] = dose: 100.0 mg/kg/injection, schedule: Q01DX001 (ip), vehicle: saline
[6] = dose: 200.0 mg/kg/injection, schedule: Q01DX001 (ip), vehicle: saline
[7] = dose: 400.0 mg/kg/injection, schedule: Q01DX001 (ip), vehicle: saline
[8] = dose: 100.0 mg/kg/injection, schedule: Q04DX003 (ip), vehicle: saline
[9] = dose: 100.0 mg/kg/injection, schedule: Q01DX001 (ip), vehicle: saline with Tween-80
[10] = dose: 100.0 mg/kg/injection, schedule: Q04DX002 (ip), vehicle: Klucel (hydroxypropylcellulose) (HPC)
[11] = dose: 200.0 mg/kg/injection, schedule: Q04DX002 (ip), vehicle: Klucel (hydroxypropylcellulose) (HPC)
[12] = dose: 100.0 mg/kg/injection, schedule: Q01DX009 (ip), vehicle: saline with Tween-80
[13] = dose: 100.0 mg/kg/injection, schedule: Q04DX003 (ip), vehicle: saline with Tween-80
[14] = dose: 200.0 mg/kg/injection, schedule: Q01DX009 (ip), vehicle: saline with Tween-80
[15] = dose: 200.0 mg/kg/injection, schedule: Q04DX003 (ip), vehicle: saline with Tween-80
[16] = dose: 400.0 mg/kg/injection, schedule: Q01DX009 (ip), vehicle: saline with Tween-80

SMILES: NS(N)(=O)=O
- T/C [1]: 88 % of control
- T/C [2]: 95 % of control
- T/C [3]: 98 % of control
- T/C [4]: 98 % of control

SMILES: [O-][N+](=C\c1ccccc1)/[N+]([O-])=C\c1ccccc1
- T/C [5]: 98 % of control
- T/C [6]: 95 % of control
- T/C [7]: 98 % of control

SMILES: O=C(Nc1cccc(Br)c1)c1ccc([N+](=O)[O-])s1
- T/C (dose: 50.0 mg/kg/injection, schedule: Q01DX005 (ip), vehicle: water): 89 % of control
- T/C (dose: 100.0 mg/kg/injection, schedule: Q01DX005 (ip), vehicle: water): 89 % of control
- T/C (dose: 200.0 mg/kg/injection, schedule: Q01DX005 (ip), vehicle: water): 89 % of control
- T/C (dose: 400.0 mg/kg/injection, schedule: Q01DX005 (ip), vehicle: water): 87 % of control

SMILES: COC(=O)c1ccncc1
- T/C [8]: 101 % of control
- T/C (dose: 200.0 mg/kg/injection, schedule: Q04DX003 (ip), vehicle: saline): 98 % of control
- T/C (dose: 400.0 mg/kg/injection, schedule: Q04DX003 (ip), vehicle: saline): 104 % of control

SMILES: CC(=O)OCCn1c(C)nc2cc(Cl)c(Cl)cc21
- T/C (dose: 100.0 mg/kg/injection, schedule: Q04DX003 (ip), vehicle: acetone): 94 % of control
- T/C (dose: 200.0 mg/kg/injection, schedule: Q04DX003 (ip), vehicle: acetone): 98 % of control
- T/C (dose: 400.0 mg/kg/injection, schedule: Q04DX003 (ip), vehicle: acetone): 93 % of control

SMILES: CN(C)C(=O)c1ccc(NCc2cnc3nc(N)nc(N)c3n2)cc1
- T/C (dose: 20.0 mg/kg/injection, schedule: Q01DX009 (ip), vehicle: Klucel (hydroxypropylcellulose) (HPC)): 97 % of control
- T/C (dose: 40.0 mg/kg/injection, schedule: Q01DX009 (ip), vehicle: Klucel (hydroxypropylcellulose) (HPC)): 96 % of control
- T/C (dose: 80.0 mg/kg/injection, schedule: Q01DX009 (ip), vehicle: Klucel (hydroxypropylcellulose) (HPC)): 97 % of control

SMILES: Cc1ccc(C)c(NC(=O)N2CCCCC2C)c1 (configuration not stated)
- T/C (dose: 100.0 mg/kg/injection, schedule: Q01DX009 (ip), vehicle: Klucel (hydroxypropylcellulose) (HPC)): 101 % of control
- T/C (dose: 100.0 mg/kg/injection, schedule: Q04DX003 (ip), vehicle: Klucel (hydroxypropylcellulose) (HPC)): 98 % of control
- T/C (dose: 200.0 mg/kg/injection, schedule: Q01DX009 (ip), vehicle: Klucel (hydroxypropylcellulose) (HPC)): 101 % of control
- T/C (dose: 200.0 mg/kg/injection, schedule: Q04DX003 (ip), vehicle: Klucel (hydroxypropylcellulose) (HPC)): 102 % of control
- T/C (dose: 400.0 mg/kg/injection, schedule: Q01DX009 (ip), vehicle: Klucel (hydroxypropylcellulose) (HPC)): 97 % of control
- T/C (dose: 400.0 mg/kg/injection, schedule: Q04DX003 (ip), vehicle: Klucel (hydroxypropylcellulose) (HPC)): 100 % of control

SMILES: CCOc1ccc(/C=C/c2cc[n+](C)cc2)cc1OC
- T/C (dose: 25.0 mg/kg/injection, schedule: Q01DX001 (ip), vehicle: saline with Tween-80): 108 % of control
- T/C (dose: 50.0 mg/kg/injection, schedule: Q01DX001 (ip), vehicle: saline with Tween-80): 95 % of control
- T/C [9]: 93 % of control

SMILES: COC1OC(COS(C)(=O)=O)C(OS(C)(=O)=O)C(OC(=O)c2ccccc2)C1OS(C)(=O)=O (configuration not stated)
- T/C [10]: 111 % of control
- T/C [11]: 97 % of control
- T/C (dose: 400.0 mg/kg/injection, schedule: Q04DX002 (ip), vehicle: Klucel (hydroxypropylcellulose) (HPC)): 97 % of control

SMILES: CNNC(=O)Cc1ccccc1
- T/C (dose: 100.0 mg/kg/injection, schedule: Q01DX001 (ip), vehicle: other): 92 % of control
- T/C (dose: 200.0 mg/kg/injection, schedule: Q01DX001 (ip), vehicle: other): 108 % of control
- T/C (dose: 400.0 mg/kg/injection, schedule: Q01DX001 (ip), vehicle: other): 108 % of control

SMILES: OCn1nnc2ccccc21
- T/C (dose: 100.0 mg/kg/injection, schedule: Q04DX002 (ip), vehicle: saline with Tween-80): 103 % of control
- T/C (dose: 200.0 mg/kg/injection, schedule: Q04DX002 (ip), vehicle: saline with Tween-80): 90 % of control
- T/C (dose: 400.0 mg/kg/injection, schedule: Q04DX002 (ip), vehicle: saline with Tween-80): 106 % of control

SMILES: O=C1c2cc(Br)ccc2-c2cc(Br)c(NC(=O)C(F)(F)F)c(Br)c21
- T/C [2]: 92 % of control
- T/C [3]: 108 % of control
- T/C [4]: 99 % of control

SMILES: O=C1ON(c2ccccc2)C(c2ccccc2)N1c1ccc([N+](=O)[O-])cc1 (configuration not stated)
- T/C (dose: 50.0 mg/kg/injection, schedule: Q01DX001 (ip), vehicle: saline): 106 % of control
- T/C [5]: 114 % of control
- T/C [6]: 100 % of control
- T/C [7]: 112 % of control

SMILES: CCCC(=O)Nc1cccc2ccccc12
- T/C [10]: 117 % of control
- T/C [11]: 107 % of control

SMILES: CC(=O)Nc1ccn(C2OC(COC(C)=O)C(OC3OC4COC(c5ccccc5)OC4C(OC(C)=O)C3OC(C)=O)C(OC(C)=O)C2OC(C)=O)c(=O)n1 (configuration not stated)
- T/C (dose: 22.5 mg/kg/injection, schedule: Q01DX001 (ip), vehicle: carboxymethylcellulose (CMC)): 97 % of control
- T/C (dose: 45.0 mg/kg/injection, schedule: Q01DX001 (ip), vehicle: carboxymethylcellulose (CMC)): 103 % of control
- T/C (dose: 90.0 mg/kg/injection, schedule: Q01DX001 (ip), vehicle: carboxymethylcellulose (CMC)): 92 % of control
- T/C (dose: 180.0 mg/kg/injection, schedule: Q01DX001 (ip), vehicle: carboxymethylcellulose (CMC)): 97 % of control

SMILES: Cc1[nH]nc(C(N)=O)c1N=NN(C)C
- T/C (dose: 12.5 mg/kg/injection, schedule: Q01DX009 (ip), vehicle: saline): 108 % of control
- T/C (dose: 25.0 mg/kg/injection, schedule: Q01DX001 (ip), vehicle: saline): 121 % of control
- T/C (dose: 25.0 mg/kg/injection, schedule: Q01DX009 (ip), vehicle: saline): 124 % of control
- T/C (dose: 50.0 mg/kg/injection, schedule: Q01DX009 (ip), vehicle: saline): 183 % of control
- T/C (dose: 75.0 mg/kg/injection, schedule: Q01DX001 (ip), vehicle: saline): 112 % of control and 124 % of control
- T/C (dose: 75.0 mg/kg/injection, schedule: Q01DX009 (ip), vehicle: saline): 204 % of control
- T/C (dose: 150.0 mg/kg/injection, schedule: Q01DX001 (ip), vehicle: saline): 104 % of control and 216 % of control
- T/C (dose: 150.0 mg/kg/injection, schedule: Q01DX009 (ip), vehicle: saline): 186 % of control

SMILES: Nc1c(C(=O)O)cccc1C(=O)O
- T/C [12]: 98 % of control
- T/C [13]: 110 % of control
- T/C [14]: 107 % of control
- T/C [15]: 108 % of control
- T/C [16]: 107 % of control
- T/C (dose: 400.0 mg/kg/injection, schedule: Q04DX003 (ip), vehicle: saline with Tween-80): 96 % of control

SMILES: COC(=O)C1=CC(C(=O)OC)C(C(=O)OC)N2C=CSC2=C1 (configuration not stated)
- T/C (dose: 25.0 mg/kg/injection, schedule: Q04DX003 (ip), vehicle: saline): 93 % of control
- T/C (dose: 50.0 mg/kg/injection, schedule: Q04DX003 (ip), vehicle: saline): 100 % of control
- T/C [8]: 96 % of control

SMILES: CCNc1nc(N)nc2n[nH]nc12
- T/C (dose: 50.0 mg/kg/injection, schedule: Q01DX009 (ip), vehicle: saline with Tween-80): 95 % of control
- T/C (dose: 50.0 mg/kg/injection, schedule: Q04DX003 (ip), vehicle: saline with Tween-80): 98 % of control
- T/C [9]: 101 % of control
- T/C [12]: 89 % of control
- T/C [13]: 101 % of control
- T/C (dose: 200.0 mg/kg/injection, schedule: Q01DX001 (ip), vehicle: saline with Tween-80): 94 % of control
- T/C [14]: 89 % of control
- T/C [15]: 98 % of control

SMILES: C=CCc1cccc(O)c1O
- T/C (dose: 12.5 mg/kg/injection, schedule: Q04DX002 (ip), vehicle: saline with Tween-80): 108 % of control
- T/C (dose: 25.0 mg/kg/injection, schedule: Q04DX002 (ip), vehicle: saline with Tween-80): 96 % of control
- T/C (dose: 50.0 mg/kg/injection, schedule: Q04DX002 (ip), vehicle: saline with Tween-80): 108 % of control

SMILES: CC1(OC(=O)c2ccc([N+](=O)[O-])cc2)CC2CC1c1ccccc12 (configuration not stated)
- T/C [1]: 90 % of control
- T/C [3]: 111 % of control
- T/C [4]: 90 % of control

SMILES: C[Se]c1nc2c(=O)[nH]c(N)nc2n1C1OC(CO)C(O)C1O (configuration not stated)
- T/C (dose: 100.0 mg/kg/injection, schedule: Q01DX005 (ip), vehicle: saline): 107 % of control
- T/C (dose: 200.0 mg/kg/injection, schedule: Q01DX005 (ip), vehicle: saline): 102 % of control

SMILES: COc1ccccc1C(=O)CC(O)(C(F)(F)F)C(F)(F)F
- T/C [12]: 105 % of control
- T/C [14]: 103 % of control
- T/C [16]: 103 % of control
